These results are taken from patent publication US11384060B2, “Amide compounds and use thereof” (ALPHALA CO., LTD., priority 2017, dated 2022).

One experiment addresses T1, glucagon receptor (GCGR) (Homo sapiens, UniProt P47871).
T1 construct: expressed in transfected cells; host or cells: CHO-K1 cells overexpressing GCGR (membrane fractions)
As to the kind of experiment: I125-glucagon binding assay (competition, GCGR membrane fractions). Summed up: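 Membranes from CHO-K1 cells overexpressing GCGR, 7.5 μg/well in 50 mM Tris pH 7.4 with 0.5% BSA, were preincubated 5 min with serially diluted compounds, then given 0.0625 nM final I^125-glucagon for 30 min at 25° C. Bound label was filtered on PEI-coated GF/B and counted; IC50 by non-linear regression.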

Experiment [1] addresses T2, glucagon receptor (GCGR) overexpressed CHO-K1 cells or human primary hepatocytes (Homo sapiens, UniProt P47871).
T2 construct: expressed in transfected cells; host or cells: GCGR overexpressed CHO-K1 cells or human primary hepatocytes (endogenous receptor)
As to the kind of experiment: Glucagon cAMP inhibition assay (Cisbio cAMP Dynamic 2 HTRF). The format is cell-based. Summed up: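 GCGR-overexpressing CHO-K1 cells or human primary hepatocytes in HBSS with 0.1% BSA and 800 nM IBMX, pre-incubated 30 min with serially diluted compounds (1% DMSO final), then stimulated 30 min at room temperature with glucagon at its EC50. cAMP measured by HTRF after 60 min lysis; IC50 by non-linear regression.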
(In general: TR-FRET usually uses a lanthanide donor and a delayed reading to cut background.)

[2] abbreviates: competition with I125-glucagon 0.0625 nM, membrane fractions of GCGR overexpressed CHO-K1 cells.
[3] abbreviates: inhibition of glucagon (EC50 concentration) induced cAMP production.

Where two headings read alike, the source gives them in different places.

T2 sequence (P47871 26-477): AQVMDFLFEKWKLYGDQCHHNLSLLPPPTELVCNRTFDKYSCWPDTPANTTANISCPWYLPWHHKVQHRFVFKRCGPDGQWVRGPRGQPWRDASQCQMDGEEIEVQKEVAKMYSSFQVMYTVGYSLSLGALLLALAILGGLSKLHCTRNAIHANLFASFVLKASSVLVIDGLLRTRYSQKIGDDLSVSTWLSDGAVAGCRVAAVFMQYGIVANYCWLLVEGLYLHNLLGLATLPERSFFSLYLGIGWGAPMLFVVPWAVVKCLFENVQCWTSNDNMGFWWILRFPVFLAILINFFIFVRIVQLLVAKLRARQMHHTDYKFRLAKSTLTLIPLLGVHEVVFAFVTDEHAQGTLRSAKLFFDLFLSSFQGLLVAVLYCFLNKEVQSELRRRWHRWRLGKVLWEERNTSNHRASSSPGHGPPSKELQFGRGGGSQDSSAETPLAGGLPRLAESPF
T1 sequence (P47871 26-477): as above

For orientation: IC50 means the concentration that gives 50% inhibition. `CC(C)(C)c1nnc(-c2ccc(OC[C@@H](Nc3ccc(C(=O)NCCC(=O)O)cc3)c3ccc(-c4ccc(Cl)cc4Cl)cc3)nc2)o1` [Compound 15-34, (S)-3-(4-((2-((5-(5-(tert-butyl)-1,3,4-oxadiazol-2-yl)pyridin-2-yl)oxy)-1-(2′,4′-dichloro-[1,1′-biphenyl]-4-yl)ethyl)amino)benzamido)propanoic Acid]: the IC50 at glucagon receptor (GCGR) came out at 3 µM. Further, in experiment [1], the “IC50 cAMP” value is 4558 nM.

At glucagon receptor (GCGR), `COc1cnc(-c2ccc([C@@H](COc3ccc(-c4cc5ccccc5o4)cn3)Nc3ccc(C(=O)NCCS(=O)(=O)O)cc3)cc2)nc1` [Compound 15-35, (S)-2-(4-((2-((5-(benzofuran-2-yl)pyridin-2-yl)oxy)-1-(4-(5-methoxypyrimidin-2-yl)phenyl)ethyl)amino)benzamido)ethane-1-sulfonic Acid] displayed an IC50 of 0.584 µM. In experiment [1], the “IC50 cAMP” value was over 30000 nM.

In turn, `CCOC(=O)CCNC(=O)c1ccc(N[C@H](COc2ccc(-c3nc4ccccc4s3)cn2)C(C)C)cc1` [Compound 15-36, Ethyl (S)-3-(4-((1-((5-(benzo[d]thiazol-2-yl)pyridin-2-yl)oxy)-3-methylbutan-2-yl)amino)benzamido)propanoate] showed an IC50 at glucagon receptor (GCGR) (uM) of over 30 µM. For the same compound, the “IC50 cAMP” value in experiment [1] amounted to 1973 nM.

Compound `CC(C)[C@@H](COc1ccc(-c2nc3ccccc3s2)cn1)Nc1ccc(C(=O)NCCC(=O)O)cc1` [Compound 15-37, (S)-3-(4-((1-((5-(benzo[d]thiazol-2-yl)pyridin-2-yl)oxy)-3-methylbutan-2-yl)amino)benzamido)propanoic Acid] yielded an IC50 at glucagon receptor (GCGR) of 0.468 µM. In addition, the “IC50 cAMP” value in experiment [1] came to 1609 nM.

In turn, `CC(C)[C@@H](COc1ccc(-c2ccc(Cl)cc2Cl)cn1)Nc1ccc(C(=O)NCCC(=O)O)cn1` [Compound 16-1, (S)-3-(6-((1-((5-(2,4-dichlorophenyl)pyridin-2-yl)oxy)-3-methylbutan-2-yl)amino)nicotinamido)propanoic Acid] came in with an IC50 on glucagon receptor (GCGR) (setting [2]) of 0.215 µM. In addition, the “IC50 cAMP” value in experiment [1] (setting [3]) is reported as 357.2 nM.

As to `CC(C)[C@@H](COc1ccc(-c2cc3ccccc3o2)cn1)Nc1ccc(C(=O)NCCC(=O)O)cn1` [Compound 16-2, (S)-3-(6-((1-((5-(benzofuran-2-yl)pyridin-2-yl)oxy)-3-methylbutan-2-yl)amino)nicotinamido)propanoic Acid], the IC50 at glucagon receptor (GCGR) (setting [2]) was found to be 0.528 µM. Moreover, the “IC50 cAMP” value in experiment [1] (setting [3]) turned out to be 239.3 nM.

As for `CC(C)C[C@@H](COc1ccc(-c2ccc(F)cc2F)nn1)Nc1ccc(C(=O)NCCC(=O)O)cc1` [Compound 17-1, (S)-3-(4-((1-((6-(2,4-difluorophenyl)pyridazin-3-yl)oxy)-4-methylpentan-2-yl)amino)benzamido)propanoic Acid], on glucagon receptor (GCGR) (setting [2]), the 50% inhibitory concentration (IC50) worked out at 2.26 µM. Moreover, the “IC50 cAMP” value in experiment [1] (setting [3]) worked out at 4239 nM.

In turn, `CC(C)C[C@@H](COc1ccc(-c2ccc(Cl)cc2Cl)nn1)Nc1ccc(C(=O)NCCC(=O)O)cc1` [Compound 17-2, (S)-3-(4-((1-((6-(2,4-dichlorophenyl)pyridazin-3-yl)oxy)-4-methylpentan-2-yl)amino)benzamido)propanoic Acid] returned an IC50 at glucagon receptor (GCGR) (setting [2]) of 0.139 µM. Besides, the “IC50 cAMP” value in experiment [1] (setting [3]) came to 716 nM.

Compound `CC[C@H](C)[C@@H](COc1ccc(-c2ccc(C(F)(F)F)cc2)nn1)Nc1ccc(C(=O)NCCC(=O)O)cc1` [Compound 17-3, 3-(4-(((2S,3S)-3-methyl-1-((6-(4-(trifluoromethyl)phenyl)pyridazin-3-yl)oxy)pentan-2-yl)amino)benzamido)propanoic Acid] displayed an IC50 at glucagon receptor (GCGR) (setting [2]) of 0.989 µM. Also, the “IC50 cAMP” value in experiment [1] (setting [3]) is given as 1307 nM.

As to `CC[C@H](C)[C@@H](COc1ccc(-c2ccc(C(F)(F)F)cc2Cl)nn1)Nc1ccc(C(=O)NCCC(=O)O)cc1` [Compound 17-4, 3-(4-(((2S,3S)-1-((6-(2-chloro-4-(trifluoromethyl)phenyl)pyridazin-3-yl)oxy)-3-methylpentan-2-yl)amino)benzamido)propanoic Acid], the IC50 on glucagon receptor (GCGR) (setting [2]) came out at 0.609 µM. For the same compound, the “IC50 cAMP” value in experiment [1] (setting [3]) turned out to be 1266 nM.

In turn, `CC[C@H](C)[C@@H](COc1ccc(-c2ccc(C(F)(F)F)cc2F)nn1)Nc1ccc(C(=O)NCCC(=O)O)cc1` [Compound 17-5, 3-(4-(((2S,3S)-1-((6-(2-fluoro-4-(trifluoromethyl)phenyl)pyridazin-3-yl)oxy)-3-methylpentan-2-yl)amino)benzamido)propanoic Acid] came in with an IC50 at glucagon receptor (GCGR) (setting [2]) of 0.769 µM. For the same compound, the “IC50 cAMP” value in experiment [1] (setting [3]) was 3332 nM.

As for `CC[C@H](C)[C@@H](COc1ccc(-c2ccc(F)cc2F)nn1)Nc1ccc(C(=O)NCCC(=O)O)cc1` [Compound 17-6, 3-(4-(((2S,3S)-1-((6-(2,4-difluorophenyl)pyridazin-3-yl)oxy)-3-methylpentan-2-yl)amino)benzamido)propanoic Acid], the IC50 at glucagon receptor (GCGR) (setting [2]) turned out to be 0.445 µM. For the same compound, the “IC50 cAMP” value in experiment [1] (setting [3]) worked out at 10157 nM.

For `CC(C)C[C@@H](COc1ccc(-c2ccc(C(F)(F)F)cc2)nn1)Nc1ccc(C(=O)NCCC(=O)O)cc1` [Compound 17-7, (S)-3-(4-((4-methyl-1-((6-(4-(trifluoromethyl)phenyl)pyridazin-3-yl)oxy)pentan-2-yl)amino)benzamido)propanoic Acid], the IC50 at glucagon receptor (GCGR) (setting [2]) was determined as 1.32 µM. Also, in experiment [1] (setting [3]), the “IC50 cAMP” value came out at 7647 nM.

`CC(C)[C@@H](COc1ccc(-c2cc3ccccc3o2)nn1)Nc1ccc(C(=O)NCCC(=O)O)cc1` [Compound 17-8, (S)-3-(4-((1-((6-(benzofuran-2-yl)pyridazin-3-yl)oxy)-3-methylbutan-2-yl)amino)benzamido)propanoic Acid]: the IC50 on glucagon receptor (GCGR) (setting [2]) was 2.04 µM. Further, the “IC50 cAMP” value in experiment [1] (setting [3]) is listed as 10741 nM.

For the compound `CC(C)[C@@H](COc1ccc(-c2ccc(C(F)(F)F)cc2F)nn1)Nc1ccc(C(=O)NCCC(=O)O)cc1` [Compound 17-9], on glucagon receptor (GCGR) (setting [2]), the IC50 was found to be 2.6 µM. Besides, in experiment [1] (setting [3]), the “IC50 cAMP” value came to 11597 nM.

`CC(C)[C@@H](COc1ccc(-c2ccc(F)cc2)nn1)Nc1ccc(C(=O)NCCC(=O)O)cc1` [Compound 17-10, (S)-3-(4-((1-((6-(4-fluorophenyl)pyridazin-3-yl)oxy)-3-methylbutan-2-yl)amino)benzamido)propanoic Acid]: the IC50 at glucagon receptor (GCGR) (setting [2]) is 2.3 µM. Also, the “IC50 cAMP” value in experiment [1] (setting [3]) is over 30000 nM.

On to `CC(C)[C@@H](COc1ccc(-c2ccc(F)cc2F)nn1)Nc1ccc(C(=O)NCCC(=O)O)cc1` [Compound 17-11, (S)-3-(4-((1-((6-(2,4-difluorophenyl)pyridazin-3-yl)oxy)-3-methylbutan-2-yl)amino)benzamido)propanoic Acid], for which, at glucagon receptor (GCGR) (setting [2]), the IC50 was 1.01 µM. The “IC50 cAMP” value in experiment [1] (setting [3]) was over 30000 nM.

As for `CC(C)[C@@H](COc1ccc(-c2ccc(C(C)(C)C)cc2)nn1)Nc1ccc(C(=O)NCCC(=O)O)cc1` [Compound 17-12, (S)-3-(4-((1-((6-(4-(tert-buty)phenyl)pyridazin-3-yl)oxy)-3-methylbutan-2-yl)amino)benzamido)propanoic Acid], the IC50 at glucagon receptor (GCGR) (setting [2]) was determined as 20 µM. For the same compound, the “IC50 cAMP” value in experiment [1] (setting [3]) worked out at 6494 nM.

As for `CCCC[C@@H](COc1ccc(-c2cc3ccccc3o2)c(C)n1)Nc1ccc(C(=O)NCCC(=O)O)cc1` [Compound 18-1, (S)-3-(4-((1-((5-(benzofuran-2-yl)-6-methylpyridin-2-yl)oxy)hexan-2-yl)amino)benzamido)propanoic Acid], the IC50 on glucagon receptor (GCGR) was 0.386 µM. Further, the “IC50 cAMP” value in experiment [1] is recorded as 250 nM.

With `CCCC[C@@H](COc1ccc(-c2ccc(C(F)(F)F)cc2Cl)c(C)n1)Nc1ccc(C(=O)NCCC(=O)O)cc1` [Compound 18-2, (S)-3-(4-((1-((5-(2-chloro-4-(trifluoromethyl)phenyl)-6-methylpyridin-2-yl)oxy)hexan-2-yl)amino)benzamido)propanoic Acid], the IC50 on glucagon receptor (GCGR) was determined as 0.042 µM. Further, the “IC50 cAMP” value in experiment [1] was 49 nM.

On to `CC[C@H](C)[C@@H](COc1ccc(-c2ccc(C(F)(F)F)cc2Cl)c(C)n1)Nc1ccc(C(=O)NCCC(=O)O)cc1` [Compound 18-3, 3-(4-(((2S,3S)-1-((5-(2-chloro-4-(trifluoromethyl)phenyl)-6-methylpyridin-2-yl)oxy)-3-methylpentan-2-yl)amino)benzamido)propanoic Acid], for which, at glucagon receptor (GCGR), the IC50 came out at 0.062 µM. The “IC50 cAMP” value in experiment [1] is 75 nM.

Consider `CC[C@H](C)[C@@H](COc1ccc(-c2cc3ccccc3o2)c(C)n1)Nc1ccc(C(=O)NCCC(=O)O)cc1` [Compound 18-4, 3-(4-(((2S,3S)-1-((5-(benzofuran-2-yl)-6-methylpyridin-2-yl)oxy)-3-methylpentan-2-yl)amino)benzamido)propanoic Acid], for which, on glucagon receptor (GCGR), the IC50 was found to be 0.203 µM. Further, the “IC50 cAMP” value in experiment [1] was found to be 151 nM.

`CC[C@H](C)[C@@H](COc1ccc(-c2ccc(Cl)cc2Cl)c(C)n1)Nc1ccc(C(=O)NCCC(=O)O)cc1` [Compound 18-5, 3-(4-(((2S,3S)-1-((5-(2,4-dichlorophenyl)-6-methylpyridin-2-yl)oxy)-3-methylpentan-2-yl)amino)benzamido)propanoic Acid] registered a 50% inhibitory concentration (IC50) at glucagon receptor (GCGR) of 0.165 µM. Further, in experiment [1], the “IC50 cAMP” value amounted to 151 nM.

Compound `CC[C@H](C)[C@@H](COc1ccc(-c2ccc(C(F)(F)F)cc2F)c(C)n1)Nc1ccc(C(=O)NCCC(=O)O)cc1` [Compound 18-6, 3-(4-(((2S,3S)-1-((5-(2-fluoro-4-(trifluoromethyl)phenyl)-6-methylpyridin-2-yl)oxy)-3-methylpentan-2-yl)amino)benzamido)propanoic Acid] showed an IC50 at glucagon receptor (GCGR) of 0.179 µM. In experiment [1], the “IC50 cAMP” value is 204 nM.
